Test results reported in PubChem BioAssay AID1259407 (Chemical Carcinogenesis Research Information System (CCRIS), 2018).
The source made the active and inactive calls. The rule behind the calls is not given here.

Tested on: CCRIS mutagenicity, Ames/micronucleus/aberration tests
Assay: CCRIS mutagenicity studies
[1] = Test System: AMES SALMONELLA TYPHIMURIUM, Strain/Indicator: TA98, Metabolic Activation: HAMSTER, LIVER, S-9, AROCLOR 1254 (10%), Method: PREINCUBATION
[2] = Test System: AMES SALMONELLA TYPHIMURIUM, Strain/Indicator: TA98, Metabolic Activation: NONE, Method: PREINCUBATION
[3] = Test System: AMES SALMONELLA TYPHIMURIUM, Strain/Indicator: TA98, Metabolic Activation: RAT, LIVER, S-9, AROCLOR 1254 (10%), Method: PREINCUBATION
[4] = Test System: AMES SALMONELLA TYPHIMURIUM, Strain/Indicator: TA100, Metabolic Activation: HAMSTER, LIVER, S-9, AROCLOR 1254 (10%), Method: PREINCUBATION
[5] = Test System: AMES SALMONELLA TYPHIMURIUM, Strain/Indicator: TA100, Metabolic Activation: NONE, Method: PREINCUBATION
[6] = Test System: AMES SALMONELLA TYPHIMURIUM, Strain/Indicator: TA100, Metabolic Activation: RAT, LIVER, S-9, AROCLOR 1254 (10%), Method: PREINCUBATION
[7] = Test System: AMES SALMONELLA TYPHIMURIUM, Strain/Indicator: TA1535, Metabolic Activation: HAMSTER, LIVER, S-9, AROCLOR 1254 (10%), Method: PREINCUBATION
[8] = Test System: AMES SALMONELLA TYPHIMURIUM, Strain/Indicator: TA1535, Metabolic Activation: NONE, Method: PREINCUBATION
[9] = Test System: AMES SALMONELLA TYPHIMURIUM, Strain/Indicator: TA1535, Metabolic Activation: RAT, LIVER, S-9, AROCLOR 1254 (10%), Method: PREINCUBATION
[10] = Test System: AMES SALMONELLA TYPHIMURIUM, Strain/Indicator: TA1537, Metabolic Activation: HAMSTER, LIVER, S-9, AROCLOR 1254 (10%), Method: PREINCUBATION
[11] = Test System: AMES SALMONELLA TYPHIMURIUM, Strain/Indicator: TA1537, Metabolic Activation: NONE, Method: PREINCUBATION
[12] = Test System: AMES SALMONELLA TYPHIMURIUM, Strain/Indicator: TA1537, Metabolic Activation: RAT, LIVER, S-9, AROCLOR 1254 (10%), Method: PREINCUBATION

| SMILES | mutagenic call [1] | mutagenic call [2] | mutagenic call [3] | mutagenic call [4] | mutagenic call [5] | mutagenic call [6] | mutagenic call [7] | mutagenic call [8] | mutagenic call [9] | mutagenic call [10] | mutagenic call [11] | mutagenic call [12] | other results |
| --- | --- | --- | --- | --- | --- | --- | --- | --- | --- | --- | --- | --- | --- |
| Cc1ccc(Cl)cc1N |  |  |  |  |  |  |  |  |  |  |  |  | mutagenic call (End Point: IN VITRO CHROMOSOMAL ABERRATIONS, Test System: CHINESE HAMSTER OVARY CELLS, Metabolic Activation: NONE): inactive; negative; mutagenic call (End Point: IN VITRO CHROMOSOMAL ABERRATIONS, Test System: CHINESE HAMSTER OVARY CELLS, Metabolic Activation: RAT, LIVER, S-9, AROCLOR 1254): inactive; negative; mutagenic call (Test System: UDS RODENT HEPATOCYTES, Strain/Indicator: THY INCORP (NON-S-PHASE), Metabolic Activation: NONE, Method: AUTORADIOGRAPHY): inactive; negative |
| O=P(O)(O)Oc1c(Br)cc(Br)cc1-c1cc(Br)cc(Br)c1O |  |  |  |  |  |  |  |  |  |  |  |  | mutagenic call (Test System: AMES SALMONELLA TYPHIMURIUM, Strain/Indicator: TA98, Metabolic Activation: NONE, Method: STANDARD PLATE): inactive; negative; mutagenic call (Test System: AMES SALMONELLA TYPHIMURIUM, Strain/Indicator: TA98, Metabolic Activation: RAT, LIVER, S-9, KANECHLOR 400, Method: STANDARD PLATE): inactive; negative; mutagenic call (Test System: AMES SALMONELLA TYPHIMURIUM, Strain/Indicator: TA100, Metabolic Activation: NONE, Method: STANDARD PLATE): inactive; negative; mutagenic call (Test System: AMES SALMONELLA TYPHIMURIUM, Strain/Indicator: TA100, Metabolic Activation: RAT, LIVER, S-9, KANECHLOR 400, Method: STANDARD PLATE): inactive; negative; mutagenic call (Test System: AMES SALMONELLA TYPHIMURIUM, Strain/Indicator: TA1535, Metabolic Activation: NONE, Method: STANDARD PLATE): inactive; negative; mutagenic call (Test System: AMES SALMONELLA TYPHIMURIUM, Strain/Indicator: TA1535, Metabolic Activation: RAT, LIVER, S-9, KANECHLOR 400, Method: STANDARD PLATE): inactive; negative; mutagenic call (Test System: AMES SALMONELLA TYPHIMURIUM, Strain/Indicator: TA1537, Metabolic Activation: NONE, Method: STANDARD PLATE): inactive; negative; mutagenic call (Test System: AMES SALMONELLA TYPHIMURIUM, Strain/Indicator: TA1537, Metabolic Activation: RAT, LIVER, S-9, KANECHLOR 400, Method: STANDARD PLATE): inactive; negative; mutagenic call (Test System: AMES SALMONELLA TYPHIMURIUM, Strain/Indicator: TA1538, Metabolic Activation: NONE, Method: STANDARD PLATE): inactive; negative; mutagenic call (Test System: AMES SALMONELLA TYPHIMURIUM, Strain/Indicator: TA1538, Metabolic Activation: RAT, LIVER, S-9, KANECHLOR 400, Method: STANDARD PLATE): inactive; negative |
| CCCCCCCCCCCCCCC1CO1 (stereo unspecified) | inactive; negative | inactive; negative | inactive; negative | inactive; negative | inactive; negative | inactive; negative | inactive; negative | inactive; negative | inactive; negative | inactive; negative | inactive; negative | inactive; negative |  |
| O=C1[O][Bi][O]c2ccccc21 | inactive; negative | inactive; negative | inactive; negative | inactive; negative | inactive; negative | inactive; negative | inactive; negative | inactive; negative | inactive; negative | inactive; negative | inactive; negative | inactive; negative |  |
| Nc1ccc(F)cc1F | inactive; negative | inactive; negative | inactive; negative |  | inactive; negative |  | inactive; negative | inactive; negative | inactive; negative |  |  |  | mutagenic call (Test System: AMES SALMONELLA TYPHIMURIUM, Strain/Indicator: TA97, Metabolic Activation: HAMSTER, LIVER, S-9, AROCLOR 1254 (10%), Method: PREINCUBATION): inactive; negative; mutagenic call (Test System: AMES SALMONELLA TYPHIMURIUM, Strain/Indicator: TA97, Metabolic Activation: HAMSTER, LIVER, S-9, AROCLOR 1254 (30%), Method: PREINCUBATION): inactive; negative; mutagenic call (Test System: AMES SALMONELLA TYPHIMURIUM, Strain/Indicator: TA97, Metabolic Activation: NONE, Method: PREINCUBATION): inactive; negative; mutagenic call (Test System: AMES SALMONELLA TYPHIMURIUM, Strain/Indicator: TA97, Metabolic Activation: RAT, LIVER, S-9, AROCLOR 1254 (10%), Method: PREINCUBATION): inactive; negative; mutagenic call (Test System: AMES SALMONELLA TYPHIMURIUM, Strain/Indicator: TA97, Metabolic Activation: RAT, LIVER, S-9, AROCLOR 1254 (30%), Method: PREINCUBATION): inactive; negative; mutagenic call (Test System: AMES SALMONELLA TYPHIMURIUM, Strain/Indicator: TA98, Metabolic Activation: HAMSTER, LIVER, S-9, AROCLOR 1254 (30%), Method: PREINCUBATION): active; positive; mutagenic call (Test System: AMES SALMONELLA TYPHIMURIUM, Strain/Indicator: TA98, Metabolic Activation: RAT, LIVER, S-9, AROCLOR 1254 (30%), Method: PREINCUBATION): inactive; negative; mutagenic call (Test System: AMES SALMONELLA TYPHIMURIUM, Strain/Indicator: TA100, Metabolic Activation: HAMSTER, LIVER, S-9, AROCLOR 1254 (5 OR 10%), Method: PREINCUBATION): inactive; negative; mutagenic call (Test System: AMES SALMONELLA TYPHIMURIUM, Strain/Indicator: TA100, Metabolic Activation: HAMSTER, LIVER, S-9, AROCLOR 1254 (30%), Method: PREINCUBATION): active; positive; mutagenic call (Test System: AMES SALMONELLA TYPHIMURIUM, Strain/Indicator: TA100, Metabolic Activation: RAT, LIVER, S-9, AROCLOR 1254 (5, 10 OR 30%), Method: PREINCUBATION): inactive; negative; mutagenic call (Test System: AMES SALMONELLA TYPHIMURIUM, Strain/Indicator: TA1535, Metabolic Activation: HAMSTER, LIVER, S-9, AROCLOR 1254 (30%), Method: PREINCUBATION): inactive; negative; mutagenic call (Test System: AMES SALMONELLA TYPHIMURIUM, Strain/Indicator: TA1535, Metabolic Activation: RAT, LIVER, S-9, AROCLOR 1254 (30%), Method: PREINCUBATION): inactive; negative |
